# Reference: patent publication US20230201213A1, “USE OF EZH2 INHIBITORS FOR TREATING CANCER” (Epizyme, Inc., priority 2020, published 2023)
# Where “and” joins values, the source holds several entries; their conditions need not be identical. Identical values can stand only once.
# Columns and labels:
# Assay type in all cases: in vivo, human
# [1] = tested on: stromal B cells; experiment: Multiplexed immunofluorescence (anti-CD20) of paired pre-/post-dose tumor biopsies, phase 2 mesothelioma study: stromal compartment
# Protocol: (§1) In this example, subjects were enrolled in a phase 2, multicenter, open-label, 2-part, single-arm, 2-stage study to assess PK, safety and efficacy of continuous oral dosing with tazemetostat 800 mg, twice daily in adult subjects with relapsed or refractory malignant mesothelioma. Subjects continued on study treatment until disease progression, development of an unacceptable toxicity, withdrawal of consent, or termination of the study. Assessments of clinical response were performed about every 6 weeks while on study. Subjects discontinued study treatment at the time of disease progression, development of an unacceptable toxicity, withdrawal of consent, or termination of the study.
# (§2) Tumor tissue biopsy samples were collected for pre-dose tumor sampling at screening and post-dose at or following the first or second tumor assessments (Cycle 3 or 5) according to local clinical site procedures, and tissue blocks processed for formalin fixation and paraffin embedding (FFPE). These FFPE samples were stored at ambient temperature. Pairs of pre- and post-treatment samples were available from 12 subjects. FFPE tissue blocks were available for 9 cases (18 tissue samples) and slides from 3 subjects were available.
# (§3) Preparation of tumor tissue was performed as follows: tumor tissue sections of 4-5 micron thickness containing representative tumor cells as determined by a trained pathologist were serially-cut from the same block for two patient cases. Sections were mounted on Superfrost plus slides (Fisherbrand™) and air-dried overnight. Where possible, sections from pre- and post-treatment from the same patient case were mounted on the same slide to reduce reagent use and to diminish technical variability of multiplex, serial antibody staining between pre- and post-treatment samples. Pre- and post-treatment samples passed QC evaluation for 10 biopsy pairs, and these samples were advanced to multiplexed immunofluorescence (IF) staining.
# (§4) IF staining of a panel of pairs of Cy3 and Cy5-labeled antibodies was performed. Initially an autofluorescence removal process was conducted. Subsequently, 8 rounds of antibody staining were done with deactivation of the fluorescent dyes via alkaline oxidation occurring prior to each subsequent round of antibody staining.
# (§5) As many regions of interest (ROI) were selected for spectral analysis for each sample, and the number ranged from 5-39 across the collection of samples. Few of the ROI failed QC for each sample, typically no more than 1-2 in each sample. There resulting number of ROI successfully imaged and analyzed ranged from 4-39. In toto, 340 of 355 ROI passed QC assessment (95.8%).
# (§6) B cell content based on the number of individual cells stained with anti-CD20 in intratumoral and stromal compartments was determined and B cell density was calculated on a mm^2 basis. Creation of intratumoral/stromal masks using PanCK and EMA staining allowed separation of intratumoral from stromal signals. The mean of B cell density from each ROI that passed QC was calculated for each pre- and post-treatment biopsy sample.
# [2] = tested on: intratumoral B cells; experiment: Multiplexed immunofluorescence (anti-CD20) of paired pre-/post-dose tumor biopsies, phase 2 mesothelioma study: intratumoral compartment
# Protocol: as §1, §2, §3, §4, §5, §6
# [3] = tested on: tumor-infiltrating B cells; experiment: Bulk RNA-sequencing of pre-/post-tazemetostat epithelioid sarcoma tumor samples; details: post- vs pre-tazemetostat
# Protocol: as §1, with “open-label,” for “open-label, 2-part,”, “safety, tolerability” for “PK, safety”, “daily and 1600 mg once daily” for “daily”, “INI1-negative tumors” for “relapsed”, “relapsed/refractory synovial sarcoma. The patient cohorts in the study also included patients with epithelioid sarcoma.” for “refractory malignant mesothelioma.”, “8” for “6”
# Tumor tissue biopsy samples from patients with epithelioid sarcoma were collected for pre-dose tumor sampling at screening and post-dose at or following the first or second tumor assessments (Cycle 3 or 5) according to local clinical site procedures, and tissue blocks processed for formalin fixation and paraffin embedding (FFPE), These FFPE samples were stored at ambient temperature. Pairs of pre- and post-treatment samples were available from 22 subjects.
# Pre- and post-tazemetostat samples were analyzed using bulk RNA-sequencing to determine specific gene expression changes and also tumor-infiltrating B cell signatures. Several different B cell signatures and one Macrophage signature were analyzed including B cell memory_CIBERSORT, B cell memory_CIBERSORT-ABS, B cell memory_XCELL, B cell naïve_CIBERSORT, B cell naïve_CIBERSORT-ABS. B cell naïve_XCELL, B cell plasma_CIBERSORT, B cell plasma_CIBERSORT-ABS, B cell plasma_XCELL, B cell_EPIC, B cell_MCPCOUNTER, B cell_QUANTISEQ, B cell_TIMER, B cell_XCELL, Class-switched memory B cell_XCELL, and Macrophage_EPIC. […] Finally, two B cell-specific marker genes, CD19 and CD20, were also analyzed in pre- and post-tazemetostat administration samples.
# [4] = tested on: tumor-associated B cells; experiment: RNA-SEQ gene signature analysis of pre-/post-tazemetostat mesothelioma tumor samples; details: post- vs pre-tazemetostat
# Protocol: as §1, §2
# The pre- and post-tazemetostat samples were also analyzed using RNA-SEQ to determine if the decrease in intratumoral B cells and stromal B cells could be observed genetically.
# [5] = 10 mesothelioma patients, post- vs pre-dose
# [6] = mesothelioma, paired biopsies of 10 patients
# [7] = one line per patient (Pt ID), post-dose biopsy (Cycle 3 or 5), tazemetostat 800 mg twice daily oral, relapsed or refractory malignant mesothelioma, CD20 staining, mean of ROI
# [8] = one line per patient (Pt ID), post-dose vs pre-dose biopsy, 800 mg twice daily, mesothelioma, negative = increase
smiles,measurement,setting,value
CCN(c1cc(-c2ccc(CN3CCOCC3)cc2)cc(C(=O)NCc2c(C)cc(C)[nH]c2=O)c1C)C1CCOCC1 [tazemetostat],% decrease in stromal B cell density (mean of means),[1]; [5],90%
same,median % decrease in stromal B cell density,[1]; [5],99%
same,"B cell post-tazemetostat stromal, mean of means","[1]; mean over 10 patients, post-dose, pre-dose mean of means 184",18 cell/mm^2
same,cases in which number and density of stromal B cells decreased to zero,"[1]; mesothelioma, 10 patients",5 cases
same,patients with a decrease of stromal B cells,[1]; [6],9/10
same,B cell post-tazemetostat stromal Mean (cell/mm^2),[1]; [7],0 cell/mm^2 (5×) and 1 cell/mm^2 and 3 cell/mm^2 and 101 cell/mm^2 and 72 cell/mm^2 and 6 cell/mm^2
same,% decrease B cell per mm^2 in post-dose samples (stromal),[1]; [8],100% (4×) and 99% (3×) and 90% and −418% and 29%
same,% decrease in intratumoral B cell density (mean of means),[2]; [5],77%
same,median % decrease in intratumoral B cell density,[2]; [5],100%
same,"B cell post-tazemetostat intratumoral, mean of means","[2]; mean over 10 patients, post-dose, pre-dose mean of means 35",8 cell/mm^2
same,cases in which number and density of intratumoral B cells decreased to zero,"[2]; mesothelioma, 10 patients",5 cases
same,patients with a decrease of intratumoral B cells,[2]; [6],8/10
same,B cell post-tazemetostat intratumoral Mean (cell/mm^2),[2]; [7],0 cell/mm^2 (5×) and 3 cell/mm^2 and 43 cell/mm^2 and 11 cell/mm^2 and 22 cell/mm^2 and 2 cell/mm^2
same,% decrease B cell per sqmm in post-dose samples (intratumoral),[2]; [8],100% (5×) and 95% and −529% and 25% and 90%
same,increase in B cell content in one sample (intratumoral),[2]; one sample that biased the mean decrease,> 500%
same,relative expression levels of several B cell signatures,[3]; FIG. 7A and 7B,showed decreases in relative expression levels
same,level of CD19 (B cell-specific marker gene),[3]; FIG. 8,decreased
same,level of CD20 (B cell-specific marker gene),[3]; FIG. 8,decreased
same,macrophage gene signature (Marcophage_EPIC),[4],showed no change
same,"relative expression level of six B cell gene signatures (B cell memory_XCELL, B cell_MCPCOUNTER, B cell naïve_CIBERSORT, B cell_QUANTISEQ, B cell naïve_CIBERSORT-ABS, B cell_XCELL)",[4]; FIG. 6,showed a decrease in relative expression level
